Data: US20260217828A1, “IMMUNE CHECKPOINT BLOCKADE THERAPY FOR TREATING STAPHYLOCOCCUS AUREUS INFECTIONS” (priority 2023, published 2026)

Test system: bioluminescent MRSA (USA300 LAC::lux)
Assay: Transtibial implant-associated osteomyelitis in C57BL/6 mice, treated with sabatolimab or saline placebo
Type: in vivo, Staphylococcus aureus
Details: vs saline placebo
Description: (FIG. 7A) Schematic illustration of the experimental design. 8-week-old C57BL/6 mice were subjected to transtibial implant-associated osteomyelitis using bioluminescent MRSA (USA300 LAC::lux) and treated with sabatolimab or a saline placebo control. The concentration of anti-TIM-3 mAb used in the study is also outlined.
Similar assays were carried out to examine the efficacy trend of immune checkpoint blockade drug Sabatolimab (anti-TIM-3) in reducing S. aureus burden due to implant-associated osteomyelitis.
Briefly, 8-week-old C57BL/6 mice were subjected to transtibial implant-associated osteomyelitis using bioluminescent MRSA (USA300 LAC::lux). The mise were then treated with sabatolimab or a saline placebo control. The concentration of anti-TIM-3 mAb used in the study was also outlined in FIG. 7A.

Substance: sabatolimab: immune checkpoint blockade drug Sabatolimab (anti-TIM-3)
- in vivo S. aureus growth (longitudinal BLI) (8-week-old C57BL/6 mice, MRSA USA300 LAC::lux, n=9-10, ANOVA p<0.05): significantly decreased
- disease severity by terminal ex vivo CFU on the tibia and internal organs (heart, liver, kidneys, and spleen) (C57BL/6 mice, day 14 post-surgery, n=9-10, t-test p<0.05): lower disease severity
